Laboratory results from US7994122B2, “Glucagon analogues” (Zealand Pharma A/S, priority 2007, dated 2011).
Where no end group is shown, it is not given here.

Experiments:
[1] = administered separately; Dakin et al. 2001; cited from earlier work
hGLP-1-R = target: T1, hGLP-1-R (Homo sapiens, UniProt P43220); test: GLP-1 receptor efficacy assay (cAMP) in HEK293 cells expressing hGLP-1-R; format: cell-based
T1 construct: expressed in transfected cells
From the text: The DNA encoding the Glucagon-R or the GLP-1-R was amplified by PCR using primers encoding terminal restriction sites for subcloning. The 5′-end primers additionally encoded a near Kozak consensus sequence to ensure efficient translation. The PCR products encoding the Glucagon-R or the GLP-1-R were subcloned into a mammalian expression vector. The fidelity of the DNA encoding the Glucagon-R and the GLP-1-R was confirmed by DNA sequencing. As the mammalian expression vector additionally encodes for G418 resistance, transfected cells may be selected by applying selection pressure with G418. […] 48 hr after transfection cells were seeded for limited dilution cloning and selected with 1 mg/ml G418 in the culture medium. […] One Glucagon-R expressing clone and one GLP-1-R expressing clone were chosen for compound profiling.
HEK293 cells expressing the hGlucagon-R, or hGLP-1-R are seeded at 40,000 cells per well in 96-well microtiter plates coated with 0.01% poly-L-lysine and grown for 1 day in culture in […] growth medium. On the day of analysis, growth medium is removed and the cells washed once with 200 μl Tyrode buffer. Cells are incubated in 100 μl Tyrode buffer containing increasing concentrations of test peptides, 100 μM IBMX, and 6 mM glucose for up 15 min at 37° C. The reaction is stopped by addition of 25 μl 0.5 M HCl and incubated on ice for 60 min. The cAMP content is estimated using the FlashPlate® cAMP kit from Perkin-Elmer. EC50 and relative efficacy are estimated by computer aided curve fitting.

[2] = Body weight in diet induced obese (DIO) mice; format: in vivo, C57BI/6J male mice; settings: HFD (DIO) mice
Procedure: Efficacious glucagon/GLP-1 receptor agonists are tested on 9-15 weeks old, 40 C57BI/6J male mice which have been kept on a High Fat Diet (HFD)—60% high-fat food (Cat. No. D12492: 20% protein, 20% carbohydrate, and 60% fat, 5.2 kcal/g; Research Diets, New Jersey, USA, for 4 weeks. The high-fat food contains soybean oil (25/773.85 g) and lard (245/773.85 g).
DIO-mice are treated with vehicle or co-agonists for 2-4 weeks by bolus administration (s.c.) twice daily. Body weight is monitored daily throughout the experiment. At the end of the experimental period animals are sacrificed, blood collected for analysis of glycated hemoglobin and a range of hormones and peptides involved in regulation of appetite, food intake, body weight, and energy balances. In addition, the epididymal/perigonadal fat pads and retroperitoneal fat (WAT) as well as the intrascapular Brown Adipose Tissue (BAT) are dissected out and weighed. […]
Following an acclimatization treatment with 100 μl vehicle (PBS) once a day for two weeks DIO-mice were treated with vehicle, control peptides or Compound 3 for 4 weeks by bolus administration (s.c.) twice daily. Body weight was monitored daily throughout the experiment. […]

T1 sequence (P43220 24-463): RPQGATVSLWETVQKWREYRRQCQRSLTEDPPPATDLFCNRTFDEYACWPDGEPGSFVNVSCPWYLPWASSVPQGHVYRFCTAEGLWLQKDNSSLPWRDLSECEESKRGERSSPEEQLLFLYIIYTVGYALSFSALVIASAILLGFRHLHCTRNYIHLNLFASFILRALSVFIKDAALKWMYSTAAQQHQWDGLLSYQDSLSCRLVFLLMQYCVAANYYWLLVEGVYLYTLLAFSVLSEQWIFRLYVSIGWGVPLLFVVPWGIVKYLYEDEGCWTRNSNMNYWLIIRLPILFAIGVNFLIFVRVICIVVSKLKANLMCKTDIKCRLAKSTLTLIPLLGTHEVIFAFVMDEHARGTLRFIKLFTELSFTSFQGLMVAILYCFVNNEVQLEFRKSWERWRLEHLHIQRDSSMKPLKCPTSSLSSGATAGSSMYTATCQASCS

## KRNRNNIA [IP-1, C-terminal octapeptide of oxyntomodulin]
[1]
  effect on food intake: fail to affect food intake

## H-HSQGTFTSDYSKYLDRARADDFVAWLKST-NH2 [Compound 3]
hGLP-1-R; first test
  ratio (GluR / GLP1R EC values): 1.27
hGLP-1-R; re-testing
  EC50[Glu]/EC50[GLP-1] ratio: 2.13
hGLP-1-R; re-testing, cAMP, HEK293 hGLP-1-R
  EC50: 0.23 nM
[2]; s.c. bolus 500 nmol/kg twice daily, 28 days, p<0.05 vs vehicle HFD
  body weight gain: able to reduce body weight gain comparable to oxyntomodulin treatment
[2]; s.c. twice daily, 4 weeks (FIG. 2)
  weight reducing effect over time: sustained over time comparable to oxyntomodulin treatment and significantly different from exendin-4 treatment
